US20150105252A1, “SUBSTITUTED PYRAZOLES AS HERBICIDES” (E I DU PONT DE NEMOURS AND COMPANY, priority 2013, published 2015)

How the values were obtained:
[1] = test system: barnyardgrass; assay: Test A preemergence; format: in vivo, Echinochloa crus-galli; conditions: preemergence; for Barnyardgrass plant response rating (0 to 100 scale, 0 is no effect, 100 is complete control): visual injury approx. 10 days after treatment
In short: (§1)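 Seeds were sown in a loam soil–sand blend and given a directed soil spray preemergence; postemergence plants at 2–10 cm, one- to two-leaf stage, were sprayed with compound in non-phytotoxic solvent with surfactant. After about 10 days in a greenhouse, injury was visually rated against untreated controls (0 = no effect, 100 = complete control).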

[2] = test system: crabgrass, large; assay: Test A preemergence; format: in vivo, Digitaria sanguinalis; conditions: preemergence; for Crabgrass, Large plant response rating (0 to 100 scale): 125 g ai/ha, visual injury approx. 10 days after treatment; for Crabgrass, Large plant response rating: 500 g ai/ha, visual injury after approx. 10 days, 0 to 100 scale (0 no effect, 100 complete control)
In short: as §1

[3] = test system: foxtail, giant; assay: Test A preemergence; format: in vivo, Setaria faberii; conditions: preemergence; for Foxtail, Giant plant response rating (0 to 100 scale): 125 g ai/ha, visual injury approx. 10 days after treatment; for Foxtail, Giant plant response rating: 500 g ai/ha, visual injury after approx. 10 days, 0 to 100 scale (0 no effect, 100 complete control)
In short: as §1

[4] = test system: morningglory; assay: Test A preemergence; format: in vivo, Ipomoea spp.; conditions: preemergence; for Morningglory plant response rating (0 to 100 scale): 125 g ai/ha, visual injury approx. 10 days after treatment; for Morningglory plant response rating: 500 g ai/ha, visual injury after approx. 10 days, 0 to 100 scale (0 no effect, 100 complete control)
In short: as §1

[5] = test system: pigweed; assay: Test A preemergence; format: in vivo, Amaranthus retroflexus; conditions: preemergence; for Pigweed plant response rating (0 to 100 scale): 125 g ai/ha, visual injury approx. 10 days after treatment; for Pigweed plant response rating: 500 g ai/ha, visual injury after approx. 10 days, 0 to 100 scale (0 no effect, 100 complete control)
In short: as §1

[6] = test system: velvetleaf; assay: Test A preemergence; format: in vivo, Abutilon theophrasti; conditions: preemergence; for Velvetleaf plant response rating (0 to 100 scale): 125 g ai/ha, visual injury approx. 10 days after treatment; for Velvetleaf plant response rating: 500 g ai/ha, visual injury after approx. 10 days, 0 to 100 scale (0 no effect, 100 complete control)
In short: as §1

[7] = test system: wheat; assay: Test A preemergence; format: in vivo, Triticum aestivum; conditions: preemergence; for Wheat plant response rating (0 to 100 scale): 125 g ai/ha, visual injury approx. 10 days after treatment; for Wheat plant response rating: 500 g ai/ha, visual injury after approx. 10 days, 0 to 100 scale (0 no effect, 100 complete control)
In short: as §1

[8] = test system: corn; assay: Test A preemergence; format: in vivo, Zea mays; conditions: preemergence; for Corn plant response rating (0 to 100 scale): 125 g ai/ha, visual injury approx. 10 days after treatment; for Corn plant response rating: 500 g ai/ha, visual injury after approx. 10 days, 0 to 100 scale (0 no effect, 100 complete control)
In short: as §1

[9] = test system: barnyardgrass; assay: Test A postemergence; format: in vivo, Echinochloa crus-galli
In short: as §1

[10] = test system: crabgrass, large; assay: Test A postemergence; format: in vivo, Digitaria sanguinalis
In short: as §1

[11] = test system: foxtail, giant; assay: Test A postemergence; format: in vivo, Setaria faberii
In short: as §1

[12] = test system: morningglory; assay: Test A postemergence; format: in vivo, Ipomoea spp.
In short: as §1

[13] = test system: pigweed; assay: Test A postemergence; format: in vivo, Amaranthus retroflexus
In short: as §1

[14] = test system: velvetleaf; assay: Test A postemergence; format: in vivo, Abutilon theophrasti
In short: as §1

[15] = test system: wheat; assay: Test A postemergence; format: in vivo, Triticum aestivum
In short: as §1

[16] = test system: corn; assay: Test A postemergence; format: in vivo, Zea mays
In short: as §1

[17] = test system: rice; assay: Test B flood; format: in vivo, Oryza sativa; conditions: 250 g ai/ha, visual rating on 0 to 100 scale (0 no effect, 100 complete control), 13 to 15 days
In short: (§2)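 Visual ratings (0 = no effect, 100 = complete control) versus untreated controls were taken 13–15 days after treatment of greenhouse plants. Treatment was added to paddy water held at 3 cm depth on 2-leaf-stage seedlings.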

[18] = test system: sedge, umbrella; assay: Test B flood; format: in vivo, Cyperus difformis; conditions: 250 g ai/ha, visual rating on 0 to 100 scale (0 no effect, 100 complete control), 13 to 15 days
In short: as §2

[19] = test system: ducksalad; assay: Test B flood; format: in vivo, Heteranthera limosa; conditions: 250 g ai/ha, visual rating on 0 to 100 scale (0 no effect, 100 complete control), 13 to 15 days
In short: as §2

[20] = test system: barnyardgrass; assay: Test B flood; format: in vivo, Echinochloa crus-galli; conditions: 250 g ai/ha, visual rating on 0 to 100 scale (0 no effect, 100 complete control), 13 to 15 days
In short: as §2

[21] = 125 g ai/ha, visual injury, 0 to 100 scale, approx. 10 days
[22] = 500 g ai/ha, visual injury after approx. 10 days, 0 to 100 scale (0 no effect, 100 complete control)
[23] = Postemergence, 500 g ai/ha, 0 to 100 scale (0 no effect, 100 complete control)
[24] = postemergence, 125 g ai/ha, about 10 days, visual rating on 0 to 100 scale (0 no effect, 100 complete control)
[25] = Postemergence, 125 g ai/ha, 0 to 100 scale, 0 no effect, 100 complete control

Compound	Barnyardgrass plant response rating [1, 22]	Crabgrass, Large plant response rating (0 to 100 scale) [2]	Crabgrass, Large plant response rating [2]	Foxtail, Giant plant response rating (0 to 100 scale) [3]	Foxtail, Giant plant response rating [3]	Morningglory plant response rating (0 to 100 scale) [4]	Morningglory plant response rating [4]	Pigweed plant response rating (0 to 100 scale) [5]	Pigweed plant response rating [5]	Velvetleaf plant response rating (0 to 100 scale) [6]	Velvetleaf plant response rating [6]	Wheat plant response rating (0 to 100 scale) [7]	Wheat plant response rating [7]	Corn plant response rating (0 to 100 scale) [8]	Corn plant response rating [8]	Barnyardgrass plant response rating [9, 23]	Barnyardgrass plant response rating [9, 24]	Crabgrass, Large plant response rating [10, 23]	Crabgrass, Large plant response rating [10, 24]	Foxtail, Giant plant response rating [11, 23]	other results
O=C(NCC(F)(F)F)c1cc(Cl)n(Cc2cccc(C(F)(F)F)c2)n1 [Compound 170]	0	10	70	0	50	0	0	0	60	0	0	0	0	0	0	30	10	30	20	10	Barnyardgrass plant response rating [1, 21]: 0; Foxtail, Giant plant response rating [11, 24]: 0; Morningglory plant response rating [12, 23]: 20; Morningglory plant response rating [12, 24]: 10; Pigweed plant response rating [13, 23]: 80; Pigweed plant response rating [13, 24]: 60; Velvetleaf plant response rating [14, 23]: 40; Velvetleaf plant response rating [14, 24]: 0; Wheat plant response rating [15, 23]: 0; Wheat plant response rating [15, 24]: 0; Corn plant response rating [16, 23]: 10; Corn plant response rating [16, 24]: 0; Plant response rating, Rice [17]: 0; Plant response rating, Sedge, Umbrella [18]: 0; Plant response rating, Ducksalad [19]: 0; Plant response rating, Barnyardgrass [20]: 0
CCc1cc(C(=O)NC2CC2)nn1Cc1nnc(C(F)(F)F)o1 [Compound 172]	50	50	90	20	50	30	40	80	100	10	20	0	0	0	10	10	0	20	10	10	Barnyardgrass plant response rating [1, 21]: 0; Foxtail, Giant plant response rating [11, 24]: 0; Morningglory plant response rating [12, 23]: 70; Morningglory plant response rating [12, 24]: 30; Pigweed plant response rating [13, 23]: 80; Pigweed plant response rating [13, 24]: 30; Velvetleaf plant response rating [14, 23]: 20; Velvetleaf plant response rating [14, 24]: 10; Wheat plant response rating [15, 23]: 0; Wheat plant response rating [15, 24]: 0; Corn plant response rating [16, 23]: 10; Corn plant response rating [16, 24]: 0; Plant response rating, Rice [17]: 0; Plant response rating, Sedge, Umbrella [18]: 0; Plant response rating, Ducksalad [19]: 0; Plant response rating, Barnyardgrass [20]: 0
O=C(NC1CC1)c1cc(I)n(Cc2cccc(C(F)(F)F)c2)n1 [Compound 180]	40	30	100	10	90	0	0	10	100	0	0	0	0	0	0	30	0	30	10	30	Barnyardgrass plant response rating (0 to 100 scale, 0 is no effect, 100 is complete control) ([1]; 125 g ai/ha): 0; Foxtail, Giant plant response rating [11, 24]: 10; Morningglory plant response rating [12, 23]: 80; Morningglory plant response rating [12, 24]: 0; Pigweed plant response rating [13, 23]: 100; Pigweed plant response rating [13, 24]: 70; Velvetleaf plant response rating [14, 23]: 30; Velvetleaf plant response rating [14, 24]: 0; Wheat plant response rating [15, 23]: 0; Wheat plant response rating [15, 24]: 0; Corn plant response rating [16, 23]: 0; Corn plant response rating [16, 24]: 0; Plant response rating, Rice [17]: 0; Plant response rating, Sedge, Umbrella [18]: 0; Plant response rating, Ducksalad [19]: 0; Plant response rating, Barnyardgrass [20]: 0
CCCCNC(=O)c1cc(I)n(Cc2cccc(C(F)(F)F)c2)n1 [Compound 182]	0	0	60	0	50	0	0	0	30	0	0	0	0	0	0	30	20	30	10	20	Barnyardgrass plant response rating (0 to 100 scale, 0 is no effect, 100 is complete control) ([1]; 125 g ai/ha): 0; Foxtail, Giant plant response rating [11, 24]: 0; Morningglory plant response rating [12, 23]: 30; Pigweed plant response rating [13, 23]: 90; Velvetleaf plant response rating [14, 23]: 70; Wheat plant response rating [15, 23]: 0; Corn plant response rating [16, 23]: 20; Corn plant response rating [16, 24]: 0; Plant response rating, Rice [17]: 0; Plant response rating, Sedge, Umbrella [18]: 0; Plant response rating, Ducksalad [19]: 0; Plant response rating, Barnyardgrass [20]: 0
CCc1cc(C(=O)NCC(F)(F)F)nn1Cc1nc(C(F)(F)F)no1 [Compound 184]	100	50	100	60	90	20	100	60	100	0	50	0	20	0	30	60	0	70	0	40	Barnyardgrass plant response rating (0 to 100 scale, 0 is no effect, 100 is complete control) ([1]; 125 g ai/ha): 0; Foxtail, Giant plant response rating [11, 24]: 0; Morningglory plant response rating [12, 25]: 30; Morningglory plant response rating [12, 23]: 90; Pigweed plant response rating [13, 25]: 60; Pigweed plant response rating [13, 23]: 90; Velvetleaf plant response rating [14, 25]: 50; Velvetleaf plant response rating [14, 23]: 60; Wheat plant response rating [15, 25]: 0; Wheat plant response rating [15, 23]: 20; Corn plant response rating [16, 23]: 60; Corn plant response rating [16, 24]: 0; Plant response rating, Rice [17]: 0; Plant response rating, Sedge, Umbrella [18]: 0; Plant response rating, Ducksalad [19]: 0; Plant response rating, Barnyardgrass [20]: 0
